A short description of series [1]: Particle size distribution by laser light scattering. It is filed as physicochemical. The following applies: after milling (unmilled for unmilled drug). As to the method:
The aqueous nano-milling was performed in a ball mill using yittrium […] zirconia beads (0.5-0.6 mm in 0). For all trials the batch size was approximately 70 g. Prior to milling the beads were conditioned with 1% stabilizer solution for 24 hours at 1,200 rpm (minimal speed, 80 mL solution for 160 mL beads), rinsed with demineralized water until conductivity reading was the same as that of the water, placed in a 150-200° C. oven until dry and cooled to room temperature before use. Milling was performed at 3,200 rpm and milling times as outlined in Table 1 were used. Before and after milling the aqueous suspensions were characterized with respect to particle size distribution, appearance (microscopic pictures and laser light scattering), and dissolution rate and assay/degradation.

Series [2] can be described thus: In vitro dissolution rate testing (USP2 apparatus, paddle). It is filed as physicochemical. The settings on record: 50 rpm, 37° C., 0.3% SDS in 1,000 mL water. As to the method:
The dissolution rate testing was done using an USP2 apparatus, paddle, 50 rpm, 37° C., 0.3% SDS in 1,000 mL water, n=3. For dissolution rate testing, the aqueous suspensions were diluted 1:5 with water and filled into vials (0.5 mg drug substance/vial).

Regarding `CC[C@@]1(O)C(=O)OCc2c1cc1n(c2=O)Cc2c-1nc1ccccc1c2/C=N/OC(C)(C)C` [Unmilled drug, 7-t-butoxyiminomethylcamptothecin], in series [1], the “PSD (light scattering, after milling) x10” value is listed as “x10 = 2 μm”; the “PSD (light scattering, after milling) x50” value is on record as “x50 = 9 μm”; the “PSD (light scattering, after milling) x90” value is “x90 = 35 μm”. Besides, in series [2] (0.5 mg drug substance/vial, 15 min), the “Dissolution rate: % released, mean (n = 3), after 15 min” value worked out at 3%. Also, the “Dissolution rate: % released, mean (n = 3), after 30 min” value in series [2] (30 min) is recorded as 5%. Also, in series [2] (60 min), the “Dissolution rate: % released, mean (n = 3), after 60 min” value came out at 15%. Besides, the “Dissolution rate: % released, mean (n = 3), after 120 min” value in series [2] (120 min) is 31%.

Source of the values: patent US20080213385A1, “Formulations for 7- (T-Butoxy) Iminomethyl Camptothecin” (priority 2005, published 2008).
